Laboratory results as given in patent US5143911A, “Antibiotic C-3 di-hydroxyphenyl substituted cephalosporin compounds, compositions and method of use thereof” (Bristol-Myers Squibb Company, priority 1990, dated 1992).
Converted amounts (≈) assume the structure as drawn.

Experiments:
[1] = system: P. rettgeri IPM-14; conditions: Providencia rettgeri, IPM14, 18 h, pH 7.2
[2] = system: S. aureus 4-1015 (MRSA); conditions: Staphylococcus aureus, 18 h, pH 7.2
[3] = system: PCresistant S. aureus; assay: MIC, two-fold serial agar dilution, Mueller-Hinton agar (geometric mean, group Gp-Ib); assay type: cell-based; conditions: Staphylococcus aureus, penicillin-resistant S. aureus, 5 strains
Experimental: (§1) For a primary evaluation of some representative compounds of this invention, minimum inhibitory concentrations (MIC's) were determined against 32 strains of test organisms by two-fold serial agar dilution method in Mueller-Hinton agar.
GpIb: PCresistant S. aureus

[4] = system: P. aeruginosa A20599; assay type: cell-based; conditions: Pseudomonas aeruginosa, pH 7.2, 32° C. 18 hr, 10^6 cells/ml
[5] = system: Cephalothin (CET)sensitive E. coli(2), Kl. pneumoniae(1) and Pr. mirabilis(2); assay: MIC, two-fold serial agar dilution, Mueller-Hinton agar (geometric mean, group Gn-Ia); assay type: cell-based; conditions: 5 strains
Experimental: as §1
GnIa: Cephalothin (CET)sensitive E. coli(2)*, Kl. pneumoniae(1) and Pr.

[6] = system: E. coli Juhl; conditions: Escherichia coli, in Mus musculus, im, read-out: PD50
[7] = system: P. vulgaris IPM-13; assay type: cell-based; conditions: Proteus vulgaris, IPM13, pH 7.2, 32° C. 18 hr, 10^6 cells/ml
[8] = system: E. coli 255; conditions: Escherichia coli, 255, 18 h, pH 7.2
[9] = system: P. aeruginosa IPM-8; conditions: Pseudomonas aeruginosa, IPM8, 18 h, pH 7.2
[10] = system: E. coli Juhl A15119; conditions: Escherichia coli, JUHLA15119, 18 h, pH 7.2
[11] = system: Ps. aeruginosa (7); assay: MIC, two-fold serial agar dilution, Mueller-Hinton agar (geometric mean, group Gn-III); assay type: cell-based; conditions: Pseudomonas aeruginosa, 7 strains
Experimental: as §1
GnIII: Ps. aeruginosa (7)

[12] = system: S. aureus Smith; conditions: Staphylococcus aureus, 18 h, pH 7.2
[13] = system: C. perfringens A9635; assay: microbe, parasite or virus in culture; assay type: cell-based; conditions: Clostridium perfringens
[14] = system: S. aureus 209P; conditions: Staphylococcus aureus, 18 h, pH 7.2
[15] = system: S. epidermidis 11-1230; conditions: Staphylococcus epidermidis, 111230, 18 h, pH 7.2
[16] = system: E. cloacae IPM-12; conditions: Enterobacter cloacae, IPM12, 18 h, pH 7.2
[17] = system: E. faecium A24817; assay type: cell-based; conditions: Enterococcus faecium, pH 7.2, 32° C. 18 hr, 10^6 cells/ml
[18] = system: B. fragilis A 22533; assay: In vitro activity against anaerobes (MIC), two-fold serial agar dilution, GAM agar; assay type: cell-based; conditions: Bacteroides fragilis, A22533, Gn, Beta-Lactamase(+)
[19] = system: P. aeruginosa IPM-9; conditions: Pseudomonas aeruginosa, IPM9, 18 h, pH 7.2
[20] = system: Penicillin (PC)sensitive S. (5 strains); assay: MIC, two-fold serial agar dilution, Mueller-Hinton agar (geometric mean, group Gp-Ia); assay type: cell-based, S. aureus; conditions: Staphylococcus aureus
Experimental: as §1
Gp-Ia: Penicillin (PC)sensitive S.

[21] = system: P. mirabilis IFO-2849; conditions: Proteus mirabilis, IFO2849, 18 h, pH 7.2
[22] = system: P. cepacia A21213; assay type: cell-based; conditions: Burkholderia cepacia, pH 7.2, 32° C. 18 hr, 10^6 cells/ml
[23] = system: C. freundii GN 7391; conditions: Citrobacter freundii, GN7391, 18 h, pH 7.2
[24] = system: X. maltophilia No. 661; conditions: Stenotrophomonas maltophilia, NO.661, 18 h, pH 7.2
[25] = system: B. fragilis CUH-108; assay: In vitro activity against anaerobes (MIC), two-fold serial agar dilution, GAM agar; assay type: cell-based; conditions: Bacteroides fragilis, CUH108, Gn, Beta-Lactamase(+), Clindamycin-resistant
Experimental: In vitro activity against anaerobic bacteria was determined on eight strains of B. fragilis by two-fold serial agar dilution method in GAM agar.

[26] = system: B. fragilis A 22534; assay: as above; assay type: cell-based; conditions: Bacteroides fragilis, A22534, Gn, Beta-Lactamase(+)
[27] = system: X. maltophilia GN 12873; conditions: Stenotrophomonas maltophilia, GN12873, 18 h, pH 7.2
[28] = system: M. morgani 1510/9; conditions: 18 h, pH 7.2
[29] = system: E. faecalis A9808; conditions: Enterococcus faecalis, A9808, 18 h, pH 7.2
[30] = system: B. fragilis A 22021; assay: In vitro activity against anaerobes (MIC), two-fold serial agar dilution, GAM agar; assay type: cell-based; conditions: Bacteroides fragilis, A22021, Gn, Beta-Lactamase(-)
[31] = system: C. difficile A 21675; assay: In vitro activity against anaerobes (MIC); assay type: cell-based; conditions: Clostridioides difficile, A21675, Gp, Clindamycin-resistant

SMILES: CO/N=C(\C(=O)NC1C(=O)N2C(C(=O)O)=C(/C=C/COC(=O)c3ccc(O)c(O)c3)CS[C@H]12)c1csc(N)n1 (stereo partly shown) [Ia, 7-[(Z)-2-(2-Aminothiazol-4-yl)-2-methoxyiminoacetamido]-3-[(E)-3-(3,4-dihydroxybenzoyloxy)-1-propen-1-yl]-3-cephem-4-carboxylic acid]
- MIC [1]: 0.05 µg/mL (≈ 0.0869 µM)
- MIC [2]: 12.5 µg/mL (≈ 21.7 µM)
- MIC [3]: 1.6 µg/mL (≈ 2.78 µM)
- MIC [4]: 3.1 µg/mL (≈ 5.39 µM)
- MIC [5]: 0.017 µg/mL (≈ 0.0295 µM)
- ED50 [6]: 0.05 mg/kg
- MIC [7]: > 100 µg/mL
- MIC [8]: 0.2 µg/mL (≈ 0.347 µM)
- MIC [9]: 6.3 µg/mL (≈ 10.9 µM)
- MIC [10]: 0.05 µg/mL (≈ 0.0869 µM)
- MIC [11]: 1.9 µg/mL (≈ 3.3 µM)
- MIC [12]: 1.6 µg/mL (≈ 2.78 µM)
- MIC [13]: 0.2 µg/mL (≈ 0.347 µM)
- MIC [14]: 3.1 µg/mL (≈ 5.39 µM)
- MIC [15]: 3.1 µg/mL (≈ 5.39 µM)
- MIC [16]: > 100 µg/mL
- MIC [17]: > 100 µg/mL
- MIC [18]: > 50 µg/mL
- MIC [19]: 6.3 µg/mL (≈ 10.9 µM)
- MIC [20]: 1.2 µg/mL (≈ 2.08 µM)
- MIC [21]: 0.05 µg/mL (≈ 0.0869 µM)
- MIC [22]: > 100 µg/mL
- MIC [23]: 12.5 µg/mL (≈ 21.7 µM)
- MIC [24]: 12.5 µg/mL (≈ 21.7 µM)
- MIC [25]: 25 µg/mL (≈ 43.4 µM)
- MIC [26]: > 50 µg/mL
- MIC [27]: 50 µg/mL (≈ 86.9 µM)
- MIC [28]: 0.05 µg/mL (≈ 0.0869 µM)
- MIC [29]: 100 µg/mL (≈ 174 µM)
- MIC [30]: 0.2 µg/mL (≈ 0.347 µM)
- MIC [31]: 12.5 µg/mL (≈ 21.7 µM)
